Results as given in patent US4925868A, “4-Hydroxy-3-pyrrolin-2-ones and treatment of circulatory disorders therewith” (Takeda Chemical Industries, Ltd., priority 1986, dated 1990).

Tests used:
[1] = test system: lipid peroxide formation in rat brain tissue homogenate; assay: Activity to inhibit lipid peroxide formation in rat brain tissue homogenate (TBA method); assay type: biochemical, rat (male SD); conditions: 10^-5 M; n = 3, mean; 5% brain homogenate, pH 7.4, 37° C., 1 hour
Description: Activity to inhibit lipid peroxide formation in rat brain tissue homogenate: Male SD rats (12-week-old) were subjected to exsanguination under anesthesia with pentobarbital, then the brain was excised. The brain tissue was homogenized in a phosphate buffer (pH 7.4) to prepare a 5% homogenate. After incubation of the homogenate at 37° C. for 1 hour, the amount of lipid peroxides formed therein was determined by the thiobarbituric acid (TBA) method in accordance with the report of Ohkawa et al. on Analytical Biochemistry, 95, 351, (1979). The test drug was added to the 5% homogenate before incubation so as to make the final concentration to be 10^-5 M. The activity to inhibit the formation of lipid peroxide was judged by comparing the amount of the lipid peroxide in the treated group with that of the reference group to which was added the solvent (DMSO), and shown by % inhibition.

mice = assay: Acute toxicity in mice; assay type: in vivo; conditions: for sedation and ptosis: six mice per group
Description: Male Crj-ICR mice (4-week-old, 21 to 26 g) were used. The animals, divided into groups, each consisting of six mice, were administered orally with compounds (4-b, 4-1) at the dosages of 300 and 1000 mg/kg, respectively. Then, each group was housed in a cage and observed for 24 hours.
The test drugs were suspended in gum arabic and administered at a volume of 0.1 ml/10 g.

rat hearts = assay: Activity to inhibit occurrence of ventricular arrhythmia during coronary artery occlusion-reperfusion in rat hearts; assay type: in vivo, rat (male SD); design: Ventricular fibrillation, incidence / Ventricular tachycardia, incidence: unit not given here; conditions: for Ventricular fibrillation, incidence / Ventricular tachycardia, incidence: (10 min.) after reperfusion; for Ventricular fibrillation, incidence / Ventricular tachycardia, incidence / Ventricular fibrillation, duration / Ventricular tachycardia, duration: average ±SEM; for Mortality: killed animals/test animals; for mortality due to VF (in words) / occurrence of arrhythmia (in words) / period of time during which arrhythmia lasted (in words) / frequency of occasional PVCs (in words): 10 mg/kg; for frequency of occasional PVCs (in words): vs vehicle around 10 times/minute; for effect on arrhythmia (in words): oral
Source text: Activity to inhibit occurrence of ventricular arrhythmia during coronary artery occlusion-reperfusion in rat hearts
Male SD rats (9- to 13-week old, 250 to 370 g) were used. The animals were subjected to thoractonomy under artificial respiration while anesthesia was maintained by administering pentobarbital. […] By recording standard limb lead II electrocardiograms, occurrence of ventricular arrhythmia was examined. […]
Incidences of ventricular fibrillation and ventricular tachycardia are shown by the percentage of the number of animals presenting the symptoms relative to the number of animals subjected to the test, and the duration of the symptoms was shown by average ±SEM in seconds. Extrasystole is shown by the number of systole/min., and the mortality is shown by the percentage of the number of killed animals relative to the number of test animals.

## CCCCCCCCCCCCCCOc1ccc(C2=C(O)CN(C)C2=O)cc1 [Compound 4-a]
[1]
  Inhibition rate of lipid peroxide formation: 97.9%

## CCCCCCCCCCCCOc1ccc(C2=C(O)CN(C)C2=O)cc1 [Compound 4-b, N-methyl-3-(4-dodecyloxyphenyl)-4-hydroxy-3-pyrrolin-2-one]
[1]
  Inhibition rate of lipid peroxide formation: 97.9%
mice; oral, 300 and 1000 mg/kg
  time to recovery from sedation and ptosis: ≤ 3 h
  sedation and ptosis: observed on half number of the test animals
mice; oral, 300 and 1000 mg/kg, 24-hour observation
  deaths: no test animals of either group were killed

## CCCCCCCCCCCCOc1ccc(C2=C(O)CN(CC(C)C)C2=O)cc1 [Compound 4-c]
[1]
  Inhibition rate of lipid peroxide formation: 100%

## CCCCCCCCCCCCOc1ccc(C2=C(O)CN(CCCCCCCCCCCC)C2=O)cc1 [Compound 4-d]
[1]
  Inhibition rate of lipid peroxide formation: 100%

## CCCCCCCCCCCCOc1ccc(C2=C(O)CN(c3ccccc3)C2=O)cc1 [Compound 4-e]
[1]
  Inhibition rate of lipid peroxide formation: 100%

## CCCCCCCCCCCCOc1ccc(C2=C(O)CN(Cc3ccccc3)C2=O)cc1 [Compound 4-f]
[1]
  Inhibition rate of lipid peroxide formation: 75.5%

## CCCCCCCCCCCCOc1ccc(C2=C(O)CN(CCc3ccccc3)C2=O)cc1 [Compound 4-g]
[1]
  Inhibition rate of lipid peroxide formation: 100%

## CCCCCCCCCCCCOc1ccc(C2=C(O)CN(CCCc3ccccc3)C2=O)cc1 [Compound 4-h]
[1]
  Inhibition rate of lipid peroxide formation: 100%

## CCCCCCCCCCCCOc1ccc(C2=C(O)CN(Cc3ccsc3)C2=O)cc1 [Compound 4-i]
[1]
  Inhibition rate of lipid peroxide formation: 89.4%

## CCCCCCCCCCCCOc1ccc(C2=C(O)CN(Cc3ccc(C(=O)OC)cc3)C2=O)cc1 [Compound 4-j]
[1]
  Inhibition rate of lipid peroxide formation: 52.8%

## CCCCCCCCCCCCOc1ccc(C2=C(O)CN(Cc3ccc(C(=O)O)cc3)C2=O)cc1 [Compound 4-k]
[1]
  Inhibition rate of lipid peroxide formation: 63.8%

## CCCCCCCCCCCCOc1ccc(C2=C(O)CN(Cc3cc(OC)c(OC)c(OC)c3)C2=O)cc1 [Compound 4-l]
[1]
  Inhibition rate of lipid peroxide formation: 96.7%
mice; mouse, in vivo
  deaths: no test animals of either group were killed
mice; oral, 300 and 1000 mg/kg
  time to recovery from sedation and ptosis: ≤ 3 h
  sedation and ptosis: observed on half number of the test animals
Rat hearts; 3 mg/Kg
  Extrasystole: 5.4 ± 1.1 times/min.
  Ventricular fibrillation, incidence: 0.8 ± 0.4
  Ventricular tachycardia, incidence: 3.5 ± 0.8
  Ventricular fibrillation, duration: 1.7 ± 1.2 s
  Ventricular tachycardia, duration: 7.1 ± 2.2 s
  Mortality: 0/8
Rat hearts
  mortality due to VF (in words): low
  occurrence of arrhythmia (in words): suppressed remarkably
  period of time during which arrhythmia lasted (in words): shortened
  frequency of occasional PVCs (in words): significantly less

## CCCCCCCCCCCCOc1ccc(C2=C(O)CN(Cc3c(C)c(OC)c(C)c(C)c3OC)C2=O)cc1 [Compound 4-m]
[1]
  Inhibition rate of lipid peroxide formation: 100%

## CCCCCCCCCCCCOc1ccc(C2=C(O)CN(Cc3ccc(Cl)cc3)C2=O)cc1 [Compound 4-n]
[1]
  Inhibition rate of lipid peroxide formation: 100%

## CCCCCCCCCCCCCCCCCCOC1=C(O)CN(Cc2cc(OC)c(OC)c(OC)c2)C1=O [Compound 4-p]
Rat hearts; 10 mg/Kg
  Extrasystole: 3.3 ± 0.7 times/min.
  Ventricular fibrillation, incidence: 0.9 ± 0.3
  Ventricular tachycardia, incidence: 4.1 ± 1.2
  Ventricular fibrillation, duration: 2.1 ± 1.3 s
  Ventricular tachycardia, duration: 7.3 ± 2.4 s
  Mortality: 0/9
Rat hearts
  mortality due to VF (in words): low
  occurrence of arrhythmia (in words): suppressed remarkably
  period of time during which arrhythmia lasted (in words): shortened
  frequency of occasional PVCs (in words): significantly less

## O=C1O[C@H]([C@@H](O)CO)C(O)=C1O [Vitamin C, reference compound]
[1]
  Inhibition rate of lipid peroxide formation: -71.6%
Rat hearts; 50 mg/kg
  Extrasystole: 11.0 ± 0.8 times/min.
  Ventricular fibrillation, incidence: 5.4 ± 0.8
  Ventricular tachycardia, incidence: 9.5 ± 1.8
  Ventricular fibrillation, duration: 74.1 ± 36.0 s
  Ventricular tachycardia, duration: 12.0 ± 2.9 s
  Mortality: 1/12
  effect on arrhythmia (in words): no significant effect

## Vitamin E [reference compound]
[1]
  Inhibition rate of lipid peroxide formation: 44.9%
Rat hearts; 50 mg/kg
  Extrasystole: 7.0 ± 4.1 times/min.
  Ventricular fibrillation, incidence: 2.0 ± 0.7
  Ventricular tachycardia, incidence: 3.7 ± 1.5
  Ventricular fibrillation, duration: 43.4 ± 36.0 s
  Ventricular tachycardia, duration: 22.3 ± 9.7 s
  Mortality: 1/10
  effect on arrhythmia (in words): no significant effect
